In one series the test system is 229E-GFP virus. The series is described as follows: microbe, parasite or virus in culture. The following applies: 72 h. The class given is cell-based, human 229E coronavirus.
The test system of series [1] is SARS-CoV-2 S protein-pseudotyped retroviral vectors. Format: cell-based.
Series [2] deals with SARS-CoV-2 strain NL/2020. Description: SARS-CoV-2 cell monolayer protection assay (crystal violet) in Vero-E6 cells.
The subject of series [3] is pseudotypes based on vesicular stomatitis virus (VSV-G) glycoprotein. The class given is cell-based.
In another series the test system is RD114-pseudotypes. Format: cell-based.
Series [4] is described as follows: Cytotoxicity measurement by MTT assay. The class given is cell-based. The conditions noted are these: African green monkey, Vero-E6 cells. How it is done: (§1) Cytotoxicity measurement by MTT assays (MTT assay: cell viability assay that infers reductive capacity of the cells via formation of formazan precipitates. Overall estimation of cell metabolic rate): Vero-E6 cell monolayers were treated with a wide range of compound concentrations (from 50 to 0.78 µM) and forty-eight hours later they were subjected to MTT assays following the manufacturer's instructions. Compound concentration leading to a 50% of cytotoxicity (CC50) were determined (Table 2).
A general note: Formazan colour is commonly taken as a measure of viable cells.

The subject of a further series is Vero-E6 cells. Description: Cytotoxicity measurement by MTT assay. The class given is cell-based. The conditions noted are these: 48 hours. How it is done: as §1
The subject of another series is SARS-CoV-2 E RNA. The series is described as follows: Intracellular viral RNA quantitation by RT-qPCR in Vero-E6 cells. Format: cell-based. The following applies: for VIRAL LOAD MOI 0.001 (% OF CONTROL): MOI 0.001, 48 hours, Vero-E6; for LOG DROP: relative reduction in viral RNA accumulation in log scale. (Real-time PCR tracks product formation cycle by cycle.)
A short description of another series: in vitro. The following applies: human.

For the compound `CCOC(=O)COc1ccc2c(=O)cc(-c3ccccc3)oc2c1` [Efloxate, efloxate], a half-maximal effect in the series with 229E-GFP virus (human coronavirus 229E) (EC50) was put at 1.6 µM. Also, it took 5 µM to reach the 90% level with 229E-GFP virus (unidentified human coronavirus) (EC90). In series [1], the “Spp (% of control)” value is on record as 16.68 % of control. Moreover, the pseudotype entry selectivity entry in series [1] is “interfere selectively with Spp entry”. In addition, the “PC MAX” value in series [2] (Maximum concentration that protects cells (100%) from the cytopathic effect, Vero-E6, MOI 0.001, 72 hours) is given as 50 µM. In addition, the “PC MIN” value in series [2] (Minimum concentration that protects cells (100%) from the cytopathic effect, Vero-E6, MOI 0.001, 72 hours) is reported as 25 µM. In addition, in series [2] (human coronavirus, including SARS-CoV-2), the “antiviral activity at non-cytotoxic concentrations” value fell in the range of 12.5 to 50 µM. Further, in series [3], the “VSVpp (% of control)” value is 106.24 % of control. Also, the “RD114pp (% of control)” value in the series on RD114-pseudotypes is given as 153.15 % of control. Also, the CC50 at 48 h in series [4] was > 50 µM. Also, the “HIGHEST NON-TOXIC CONCENTRATION (MTT)” value in the series on Vero-E6 cells came out at 12.5. Also, the “VIRAL LOAD MOI 0.001 (% OF CONTROL)” value in the series on SARS-CoV-2 E RNA (dose 12.5 µM) was 27.42 % OF CONTROL; with SARS-CoV-2 E RNA (dose 25 µM) it was 24.34 % OF CONTROL; in the series with SARS-CoV-2 E RNA (dose 35 µM) it was 0.00 % OF CONTROL; in the series on SARS-CoV-2 E RNA (dose 50 µM) it was 0.06 % OF CONTROL. In addition, the “LOG DROP” value in the series on SARS-CoV-2 E RNA (dose 12.5 µM) came to 0.55; with SARS-CoV-2 E RNA (dose 25 µM) it was 0.6; in the series with SARS-CoV-2 E RNA (dose 35 µM), 5.5; in the series on SARS-CoV-2 E RNA (dose 50 µM) it was 3.2. The same compound registered a CC50 at 72 h in “in vitro” of 35 µM.

These data come from patent EP4000614A1, “EFLOXATE FOR USE AS ANTIVIRAL AGENT” (Consejo Superior de Investigaciones Científicas (CSIC), priority 2020, dated 2022).
